# In US9476883B2, “Cellular recognition conjugates and methods of use for the histological analysis of cancer tissue using MALDI-MS imaging” (GEORGIA STATE UNIVERSITY RESEARCH FOUNDATION, priority 2011, dated 2016):
# Entries after “also recorded” stand apart in the source; their conditions may differ.
# Columns and labels:
# [1] = test system: cells expressing sialyl Lewis X antigen; test: MALDI-IMS imaging of a renal cell carcinoma tissue slice incubated with the imaging agent; assay type: binding; conditions: fresh-frozen renal tissue with tumor and normal regions, 7 μm slice, 2 ng/μl in methanol, overnight at 4° C., no matrix
# Procedure: A tissue slice containing renal cell carcinoma was immunostained (mouse monoclonal antibody, GenWay Biotech San Diego, Calif.) that expressed regions coincident with the tumor area (dark stained bottom tip area of FIG. 3; confirmed by pathological analysis).
# An adjacent tissue slice (7 μm) was placed on a conductive slide and incubated with the imaging agent of Example 3 in 100% methanol (2 ng/μl) in a humid chamber overnight at 4° C. Slides were washed for 5 minutes in PBS followed by brief water wash to remove any unbound material. The slides are placed in a desiccator for 20 minutes and analyzed directly by MALDI-TOF (no matrix is added) in the reflectron mode using a laser raster width of 200 μm.
# The stabilized carbocation is used in this example located and confirm immunological and pathology analysis of this sample that the MALDI indicated region corresponded to the area associated with cancerous tissue.
# [2] = test system: renal cell carcinoma tissue; test: MALDI-IMS of alcohol fixed (UMFIX/Sakura) renal cell carcinoma tissue exposed to the imaging agent; assay type: binding
# Text: FIG. 4 depicts the MALDI-IMS of a renal cell carcinoma tissue sample exposed to the imaging agent of Example 3. FIG. 5 depicts the same tissue sample stained with Sakura/UMFx alcohol.
# These red pixels correlate to the MALDI peaks in the spectra shown in FIG. 1 and the color intensity is related to peak abundance as shown in the expression scale. Peaks were obtained in the absence of any chemical matrix. […] As such, this provides a method for probing tumor tissue microarrays prepared from alcohol or formalin fixed tissues.
smiles,measurement,setting,value
"COc1ccc(C(SCCC(=O)NCCCn2cc(COc3cc(C(=O)N(C)Cc4c5ccccc5c(CN(C)Cc5ccccc5B(O)O)c5ccccc45)ccc3C(=O)N(C)Cc3c4ccccc4c(CN(C)Cc4ccccc4B(O)O)c4ccccc34)nn2)(c2ccc(OC)cc2)c2ccc(OC)c(C#CCCC(=O)NCc3ccccc3)c2)cc1 [Example 3, [({[({[({2-[(1-{3-[({3-[5-(Benzylamino)-5-oxopent-1-yn-1-yl]-4-methoxyphenyl}bis(4-methoxyphenyl)methyl)thio]propanamido}prop-3-yl)-1H-1,2,3-triazol-4-yl]methoxy}terephthaloyl)bis(methylazanediyl)]bis(methylene)}bis(anthracene-10,9-diyl))bis(methylene)]bis(methylazanediyl)}bis(methylene))bis(2,1-phenylene)]-diboronic acid]","binding of the imaging agent to tissue, detected as stabilized carbocation in MALDI-IMS",[1],bound only to the cells expressing sialyl Lewis X antigen
same,binding of the imaging agent to alcohol fixed tumor tissue,[2],affixed to the cell surface; also recorded: capable of binding to alcohol fixed renal tissues
